Measured values taken from patent US20030143713A1, “Novel glycosidase inhibitors and their pharmacological uses, in particular for treating diabetes” (priority 1999, published 2003).

Target: T1, isoenzyme 1 of barley α-amylase (AMY1) (Hordeum vulgare, UniProt P00693)
T1 construct: made in house; host or cells: Pichia pastoris
Experiment: X-ray crystal structure of the AMY1/spermidine complex (cocrystallisation with spermidine, then soaking in acarbose)
Format: binding
Procedure: The 9 C-terminal residues of recombinant isoenzyme 1 of barley α-amylase (AMY1) were cleaved in order to obtain a C-terminal end of the same length as that of isoenzyme 2 (AMY2). The protein was then over-expressed in Pischia pastoris, purified and concentrated.
The protein preparation used for crystallisation has a concentration of 5.1 mg/ml and is in a solution of 10 mM MES (2-[N]-Morpholino ethane sulphonic acid), 100 mM CaCl2, 0.02% NaN3, pH 6.7.
The crystals were obtained by cocrystallisation thanks to the vapour diffusion principle using the hanging droplet technique. To do this, 2.5 μl of polyethylene glycol 8000 at 21% as a precipitating agent and 0.5 μl of a 0.1M solution of spermidine as a crystallisation additive were added to 2 μl of the protein solution described previously. This droplet was equilibrated at 19° C. against a reservoir containing 500 μl of polyethylene glycol 8000 at 21%.
The crystals were then immersed for 20 hours in a polyethylene glycol 8000 solution at 21% containing 10 mM of acarbose (a pseudo-tetrasaccharide).
Collection of the diffraction data was carried out using an X-ray generator (CuKα radiation—wavelength 1.5418 Å) with a rotating anode (Nonius 581) operating at 40 kV and 90 mA (i.e. 3.6 kW) with a graphite monochromator coupled to a two-dimensional detector of Image Plate type (MarResearch 345) of 34.5 cm in diameter.
A set of 180 diffraction exposures (each corresponding to 1° of oscillation of the crystal) was collected at 15° C., the crystal being capillary mounted and positioned at 120 mm from the detector, with an exposure time of the crystal to the X-rays of 500s per exposure. The highest resolution of this set of data is 2.44 Å.
We then determined the space group as being a P212121. The asymmetrical unit is composed of a molecule of the AMY1/spermidine complex, which corresponds to a volume of solvent in the lattice of 53%.
Subsequent processing of the data was carried out using the CCP4 suite of programs (CCP4, 1994).
The molecular replacement method was used thanks to the AmoRe software (Navaza, 1994) using the structure of isoenzyme 2 of barley α-amylase (AMY2-accession code PDB: 1AMY) (Kadziola et al., 1994 and Kadziola et al., 1998) as a guide model because of the significant sequence homology (80%) between this initial model and our protein of interest (AMY1). Refinement phases using molecular dynamic techniques (simulated annealing—Brünger et al., 1990) were carried out with CNS software version 0.9a (Brünger et al., 1998) alternating with model manipulations. […] In order to do this, 2Fo-Fc and Fo-Fc electronic density maps were calculated. […]

[1] = experimental AMY1/spermidine complex

T1 sequence (P00693 25-429 limits assumed): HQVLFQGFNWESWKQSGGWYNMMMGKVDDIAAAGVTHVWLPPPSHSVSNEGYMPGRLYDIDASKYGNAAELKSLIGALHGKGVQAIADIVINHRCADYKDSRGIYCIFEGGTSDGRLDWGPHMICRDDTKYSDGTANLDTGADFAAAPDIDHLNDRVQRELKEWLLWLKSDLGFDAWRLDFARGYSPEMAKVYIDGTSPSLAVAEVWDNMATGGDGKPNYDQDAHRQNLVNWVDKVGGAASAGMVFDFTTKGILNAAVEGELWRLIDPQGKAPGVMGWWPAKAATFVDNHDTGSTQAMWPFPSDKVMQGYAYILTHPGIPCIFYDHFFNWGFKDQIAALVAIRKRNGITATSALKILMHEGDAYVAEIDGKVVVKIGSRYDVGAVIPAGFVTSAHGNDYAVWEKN

Compound: NCCCCNCCCN [spermidine]
- Direct hydrogen bonds with a residue [1]: 5
- Direct hydrogen bonds with a water molecule [1]: 4
- total of H bonds stabilising the complex (experimental AMY1/spermidine structure): 9
- affinity for the enzyme compared with acarbose type inhibitors (in the presence of the two types of inhibitors (spermidine and acarbose)): significantly greater affinity for the enzyme in comparison to the acarbose type inhibitors
